Assay results published in ChEMBL document CHEMBL5244255, “An insight on medicinal attributes of 1,2,4-triazoles” (Eur J Med Chem, 2020).
In brackets after ≈: the same amount, converted by molar mass.

Tests used:
HCT-116 [1] = test: Anticancer activity against human HCT-116 cells assessed as cell growth inhibition
[2] = test system: Xanthomonas oryzae pv. oryzae; test: Antibacterial activity against Xanthomonas oryzae pv. oryzae assessed as bacterial growth inhibition by turbidimetric method; assay type: functional, organism-based
Mus musculus = test: Anticonvulsant activity in po dosed mouse assessed as MES-induced seizures; assay type: functional
[3] = Protection index, ratio of TD50 for neurotoxicity in po dosed mouse to ED50 for anticonvulsant activity in ip dosed mouse; assay type: toxicity, organism-based; conditions: in vivo, read-out: Ratio TD50/ED50
Staphylococcus aureus [4] = test: Antibacterial activity against Methicillin-resistant Staphylococcus aureus assessed as bacterial growth inhibition incubated for 24 hrs; assay type: functional
Staphylococcus aureus [5] = test: Antibacterial activity against Staphylococcus aureus 6538 assessed as bacterial growth inhibition incubated for 24 hrs; assay type: functional
[6] = target: Vascular endothelial growth factor receptor 2 (Homo sapiens, UniProt P35968); test: Inhibition of human VEGFR2 (unknown origin) incubated for 1 hrs in presence of ATP by ELISA assay
Sequence of Vascular endothelial growth factor receptor 2 (P35968 whole entry): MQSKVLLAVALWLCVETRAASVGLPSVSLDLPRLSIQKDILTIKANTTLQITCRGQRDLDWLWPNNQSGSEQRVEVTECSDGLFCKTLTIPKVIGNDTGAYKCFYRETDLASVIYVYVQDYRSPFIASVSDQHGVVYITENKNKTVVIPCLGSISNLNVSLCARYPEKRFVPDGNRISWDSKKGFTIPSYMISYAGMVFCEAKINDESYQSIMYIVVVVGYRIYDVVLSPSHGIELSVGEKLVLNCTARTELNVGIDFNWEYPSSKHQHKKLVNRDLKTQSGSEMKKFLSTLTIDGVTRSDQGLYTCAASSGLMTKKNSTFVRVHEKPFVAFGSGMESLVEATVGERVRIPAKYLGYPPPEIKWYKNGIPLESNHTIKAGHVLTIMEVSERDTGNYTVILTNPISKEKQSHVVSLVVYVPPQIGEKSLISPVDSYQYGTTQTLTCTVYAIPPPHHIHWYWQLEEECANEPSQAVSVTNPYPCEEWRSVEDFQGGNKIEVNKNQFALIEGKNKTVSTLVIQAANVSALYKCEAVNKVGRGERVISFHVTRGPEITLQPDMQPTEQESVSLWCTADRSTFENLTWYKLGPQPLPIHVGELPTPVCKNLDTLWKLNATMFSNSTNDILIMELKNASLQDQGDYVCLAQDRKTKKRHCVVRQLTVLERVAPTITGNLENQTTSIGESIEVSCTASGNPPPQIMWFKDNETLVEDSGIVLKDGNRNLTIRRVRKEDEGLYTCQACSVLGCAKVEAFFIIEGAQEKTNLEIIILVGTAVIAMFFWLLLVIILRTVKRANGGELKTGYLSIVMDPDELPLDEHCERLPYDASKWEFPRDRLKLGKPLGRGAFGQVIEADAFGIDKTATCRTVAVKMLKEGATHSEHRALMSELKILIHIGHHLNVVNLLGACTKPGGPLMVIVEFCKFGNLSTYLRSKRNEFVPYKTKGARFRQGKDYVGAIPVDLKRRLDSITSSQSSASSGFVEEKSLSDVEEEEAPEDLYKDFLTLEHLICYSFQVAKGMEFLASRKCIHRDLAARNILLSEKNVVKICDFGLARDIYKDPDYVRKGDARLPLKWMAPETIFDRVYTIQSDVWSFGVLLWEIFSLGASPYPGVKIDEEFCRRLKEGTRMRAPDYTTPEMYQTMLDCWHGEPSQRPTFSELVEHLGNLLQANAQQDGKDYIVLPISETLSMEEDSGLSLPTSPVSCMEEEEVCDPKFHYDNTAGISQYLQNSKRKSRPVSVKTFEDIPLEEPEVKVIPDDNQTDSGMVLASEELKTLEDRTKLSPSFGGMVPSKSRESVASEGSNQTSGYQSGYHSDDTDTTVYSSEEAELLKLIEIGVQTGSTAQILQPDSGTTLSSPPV

[7] = target: Hepatocyte growth factor receptor (Homo sapiens, UniProt P08581); test: Inhibition of c-Met (unknown origin) incubated for 1 hrs in presence of ATP by ELISA assay
Sequence of Hepatocyte growth factor receptor (P08581 whole entry): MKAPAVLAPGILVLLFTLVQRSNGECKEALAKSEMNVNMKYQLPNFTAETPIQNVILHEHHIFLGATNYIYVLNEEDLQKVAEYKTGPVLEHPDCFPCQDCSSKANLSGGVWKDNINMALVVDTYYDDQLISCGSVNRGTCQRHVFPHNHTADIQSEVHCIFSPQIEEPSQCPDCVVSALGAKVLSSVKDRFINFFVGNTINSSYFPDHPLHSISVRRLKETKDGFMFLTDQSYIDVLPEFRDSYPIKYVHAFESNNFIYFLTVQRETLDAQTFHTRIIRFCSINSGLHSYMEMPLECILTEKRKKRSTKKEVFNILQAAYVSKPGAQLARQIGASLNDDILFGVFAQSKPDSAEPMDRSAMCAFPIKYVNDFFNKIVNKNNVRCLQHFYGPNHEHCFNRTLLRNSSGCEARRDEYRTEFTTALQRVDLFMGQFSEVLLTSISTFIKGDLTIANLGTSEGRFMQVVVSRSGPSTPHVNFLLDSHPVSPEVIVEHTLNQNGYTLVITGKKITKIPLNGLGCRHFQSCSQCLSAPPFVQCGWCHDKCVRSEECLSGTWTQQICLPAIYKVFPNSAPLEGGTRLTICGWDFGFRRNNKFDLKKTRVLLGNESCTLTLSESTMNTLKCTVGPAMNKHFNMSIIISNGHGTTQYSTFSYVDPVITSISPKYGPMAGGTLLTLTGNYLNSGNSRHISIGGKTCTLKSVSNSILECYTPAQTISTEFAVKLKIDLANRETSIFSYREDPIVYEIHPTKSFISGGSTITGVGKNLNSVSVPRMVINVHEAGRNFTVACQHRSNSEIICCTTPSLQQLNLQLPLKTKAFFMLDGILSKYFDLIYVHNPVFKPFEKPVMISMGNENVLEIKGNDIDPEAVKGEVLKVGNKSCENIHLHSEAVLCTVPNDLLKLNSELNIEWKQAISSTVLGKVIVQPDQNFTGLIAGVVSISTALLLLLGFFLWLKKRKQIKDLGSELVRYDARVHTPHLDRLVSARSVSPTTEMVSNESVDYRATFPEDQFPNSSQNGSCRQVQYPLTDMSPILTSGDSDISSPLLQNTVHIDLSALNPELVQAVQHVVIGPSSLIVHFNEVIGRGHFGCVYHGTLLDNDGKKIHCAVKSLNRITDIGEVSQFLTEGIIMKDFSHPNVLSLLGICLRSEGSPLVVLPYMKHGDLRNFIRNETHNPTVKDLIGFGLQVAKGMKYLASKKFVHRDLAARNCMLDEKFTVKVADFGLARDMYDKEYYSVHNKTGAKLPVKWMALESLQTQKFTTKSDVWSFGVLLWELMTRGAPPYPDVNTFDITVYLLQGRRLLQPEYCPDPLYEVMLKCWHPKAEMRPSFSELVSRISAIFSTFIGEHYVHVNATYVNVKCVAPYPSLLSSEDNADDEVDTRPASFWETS

MCF7 [8] = test: Anticancer activity against human MCF7 cells assessed a cell growth inhibition incubated for 48 hrs by SRB assay; assay type: functional, cell-based; conditions: MCF7, 48 h
[9] = test system: Middle East respiratory syndrome-related coronavirus; test: Antiviral activity of Middle East respiratory syndrome coronavirus; assay type: functional, organism-based
PC-3 [10] = test: Anticancer activity against human PC-3 cells assessed as cell growth inhibition; assay type: functional, cell-based
DU-145 [11] = test: Anticancer activity against human DU-145 cells assessed as cell growth inhibition incubated for 48 hrs by MTT assay; assay type: functional, cell-based; conditions: DU-145, 48 h
BT-20 [12] = test: Anticancer activity against human BT-20 cells assessed as cell growth inhibition incubated for 48 hrs by MTT assay; assay type: functional, cell-based; conditions: BT-20, 48 h
BT-20 [13] = test: Potency index, ratio of test compound IC50 to cisplatin IC50 for antiproliferative against human BT-20 cells; assay type: functional
A549 [14] = test: Anticancer activity against human A549 cells assessed as cell growth inhibition incubated for 48 hrs by MTT assay; assay type: functional, cell-based; conditions: A549, 48 h
HeLa [15] = test: Antiproliferative activity against human HeLa cells assessed as cell growth inhibition by MTT assay; assay type: functional, cell-based
[16] = Anticancer activity against human SK-MEL-128 cells assessed as cell growth inhibition incubated for 48 hrs by MTT assay; assay type: functional, cell-based; conditions: SK-MEL-128, 48 h
DU-145 [17] = test: Anticancer activity against human DU-145 cells assessed as cell growth inhibition incubated for 24 hrs by MTS assay; assay type: functional, cell-based; conditions: DU-145, 24 h
PC-3 [18] = test: Anticancer activity against human PC-3 cells assessed as cell growth inhibition incubated for 24 hrs by MTS assay; assay type: functional, cell-based; conditions: PC-3, 24 h
LNCaP = test: Anticancer activity against human LNCaP cells assessed as cell growth inhibition incubated for 24 hrs by MTS assay; assay type: functional, cell-based
HCT-116 [19] = test: Anticancer activity against human HCT-116 cells assessed as cell growth inhibition incubated for 24 hrs by MTT assay; assay type: functional, cell-based; conditions: HCT-116, 24 h
MCF7 [20] = test: Anticancer activity against human MCF7 cells assessed as cell growth inhibition incubated for 24 hrs by MTT assay; assay type: functional, cell-based; conditions: MCF7, 24 h
PC-3 [21] = test: Anticancer activity against human PC-3 cells assessed as cell growth inhibition incubated for 24 hrs by MTT assay; assay type: functional, cell-based; conditions: PC-3, 24 h
A549 [22] = test: Anticancer activity against human A549 cells assessed as cell growth inhibition incubated for 24 hrs by MTT assay; assay type: functional, cell-based; conditions: A549, 24 h
[23] = Inhibition of BRAF V600E mutant (unknown origin) incubated for 25 mins in presence of ATP by ELISA assay; design: species or system Homo sapiens
[24] = target: Epidermal growth factor receptor (Homo sapiens, UniProt P00533); test: Inhibition of EGFR (unknown origin) […] insect sf9 cells incubated for 1 hrs in presence of ATP
Sequence of Epidermal growth factor receptor (P00533 whole entry): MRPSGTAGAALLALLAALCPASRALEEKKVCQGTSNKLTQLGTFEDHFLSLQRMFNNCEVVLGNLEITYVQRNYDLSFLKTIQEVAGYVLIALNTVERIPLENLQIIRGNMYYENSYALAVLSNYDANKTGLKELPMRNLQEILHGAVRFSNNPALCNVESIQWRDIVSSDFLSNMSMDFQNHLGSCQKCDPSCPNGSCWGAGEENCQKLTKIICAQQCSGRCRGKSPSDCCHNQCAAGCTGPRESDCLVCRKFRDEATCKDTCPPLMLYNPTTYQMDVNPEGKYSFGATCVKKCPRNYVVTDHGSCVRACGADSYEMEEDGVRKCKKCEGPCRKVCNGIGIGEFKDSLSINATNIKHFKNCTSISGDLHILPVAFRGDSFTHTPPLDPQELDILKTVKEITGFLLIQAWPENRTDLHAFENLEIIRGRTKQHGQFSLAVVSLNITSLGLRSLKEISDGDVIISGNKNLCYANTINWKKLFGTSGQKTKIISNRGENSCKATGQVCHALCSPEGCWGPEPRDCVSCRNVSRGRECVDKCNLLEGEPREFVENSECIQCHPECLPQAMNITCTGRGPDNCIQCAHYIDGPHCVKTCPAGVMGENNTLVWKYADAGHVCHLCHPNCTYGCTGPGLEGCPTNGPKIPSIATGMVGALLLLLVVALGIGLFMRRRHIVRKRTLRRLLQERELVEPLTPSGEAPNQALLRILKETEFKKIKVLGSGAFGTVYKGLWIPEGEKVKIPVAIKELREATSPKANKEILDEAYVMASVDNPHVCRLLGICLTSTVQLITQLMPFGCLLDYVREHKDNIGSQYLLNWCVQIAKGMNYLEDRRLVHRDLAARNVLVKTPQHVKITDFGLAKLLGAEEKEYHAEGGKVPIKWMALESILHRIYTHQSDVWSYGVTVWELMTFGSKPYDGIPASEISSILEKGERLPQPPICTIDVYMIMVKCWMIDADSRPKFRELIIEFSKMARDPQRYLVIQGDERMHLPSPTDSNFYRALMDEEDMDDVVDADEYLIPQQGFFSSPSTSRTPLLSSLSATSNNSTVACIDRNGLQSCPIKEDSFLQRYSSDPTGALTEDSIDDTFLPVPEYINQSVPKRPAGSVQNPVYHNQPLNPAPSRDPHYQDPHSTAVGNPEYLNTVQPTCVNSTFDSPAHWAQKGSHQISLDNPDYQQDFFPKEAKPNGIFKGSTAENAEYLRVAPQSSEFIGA

Tubulin [25] = test: Inhibition of tubulin (unknown origin); assay type: protein-complex assay, Homo sapiens
A549 [26] = test: Anticancer activity against human A549 cells assessed as cell growth inhibition incubated for 48 hrs by CCK8 assay; assay type: functional, cell-based; conditions: A549, 48 h
HepG2 = test: Antiproliferative activity against human HepG2 cells assessed as cell viability incubated for 72 hrs by MTT assay; assay type: functional, cell-based; conditions: HepG2, 72 h
Tubulin [27] = target: Tubulin (Bos taurus, UniProt Q6B856+Q862L2+Q862F3); test: Inhibition of bovine brain tubulin polymerization incubated for 20 mins in presence of GTP
Jurkat = test: Antiproliferative activity against human jurkat cells assessed as cell growth inhibition incubated for 48 hrs by MTT assay; assay type: functional, cell-based
RS4-11 = test: Antiproliferative activity against human RS4-11 cells assessed as cell growth inhibition incubated for 48 hrs by MTT assay; assay type: functional, cell-based; conditions: RS4-11, 48 h
MCF7 [28] = test: Antiproliferative activity against human MCF7 cells assessed as cell growth inhibition incubated for 48 hrs by MTT assay; assay type: functional, cell-based; conditions: MCF7, 48 h
HeLa [29] = test: Antiproliferative activity against human HeLa cells assessed as cell growth inhibition incubated for 48 hrs by MTT assay; assay type: functional, cell-based
HT-29 = test: Antiproliferative activity against human HT-29 cells assessed as cell growth inhibition incubated for 48 hrs by MTT assay; assay type: functional, cell-based; conditions: HT-29, 48 h
Escherichia coli = test: Antibacterial activity against Escherichia coli ATCC 25922 assessed as bacterial growth inhibition by double micro dilution method; assay type: functional
Enterococcus faecalis = test: Antibacterial activity against Enterococcus faecalis ATCC 29212 assessed as bacterial growth inhibition by double micro dilution method; assay type: functional
Pseudomonas aeruginosa = test: Antibacterial activity against Pseudomonas aeruginosa ATCC 27853 assessed as bacterial growth inhibition by double micro dilution method; assay type: functional
[30] = test system: Acinetobacter haemolyticus; test: Antibacterial activity against Acinetobacter haemolyticus ATCC 19002 assessed as bacterial growth inhibition by double micro dilution method; assay type: functional
Staphylococcus aureus [31] = test: Antibacterial activity against Staphylococcus aureus ATCC 25923 assessed as bacterial growth inhibition by double micro dilution method; assay type: functional
Klebsiella pneumoniae = test: Antibacterial activity against Klebsiella pneumoniae ATCC 13883 assessed as bacterial growth inhibition by double micro dilution method; assay type: functional
HCT-116 [32] = test: Antiproliferative activity against human HCT-116 cells assessed as cell viability incubated for 48 hrs by MTT assay; conditions: HCT-116, 48 h

## O=C(CCSc1nnc2n(Cc3ccccc3)c(=O)c3c4c(sc3n12)CCCC4)N1CCN(c2ccccc2)CC1
HCT-116 [1]
  IC50: 6120 nM

## O=c1c2c3c(sc2n2c(CN4CCN(c5ccc(Cl)cc5)CC4)nnc2n1Cc1ccccc1)CCCC3
HCT-116 [1]
  IC50: 6560 nM

## CCOC(=O)c1nc(Sc2nnc3c(Cl)cccn23)c2ccccc2n1
[2]
  EC50: 7.2 µg/mL (≈ 18.7 µM)

## O=c1c2ccccc2n2cnnc2n1-c1ccc(Br)cc1
Mus musculus
  ED50: 94.6 mg/kg
[3]
  selectivity ratio: > 26

## FC(F)(F)c1cc(-c2nnc(Sc3cc(Cl)nc(Sc4ccccc4)n3)[nH]2)cc(C(F)(F)F)c1
Staphylococcus aureus [4]
  MIC: 0.43 µg/mL (≈ 0.805 µM)
Staphylococcus aureus [5]
  MIC: 1.8 µM (≈ 0.961 µg/mL)

## Cc1c(C(=O)Nc2ccc(Oc3ccnc(-c4nncn4CN4CCN(C)CC4)c3)c(F)c2)c(=O)n(-c2ccccc2)n1C
[6]
  IC50: 190 nM
[7]
  IC50: 110 nM

## CC/C(=C(\c1ccccc1)c1ccc(OCCN(C)C)cc1)c1ccccc1 [TAMOXIFEN]
MCF7 [8]
  IC50: 8.38 µg/mL (≈ 22.6 µM)

## Sc1nnc(NNc2ccc(I)cc2)n1NC1C=CCC1 (stereo unspecified)
[9]
  IC50: 470 nM

## O=C(CSc1nnc2n(Cc3ccccc3)c(=O)c3c4c(sc3n12)CCCC4)N1CCN(c2ccccc2)CC1
PC-3 [10]
  IC50: 5480 nM

## CCN(CC)c1ccc2cc(C(=O)NNC(=O)Cn3nc(Cc4cccc(Br)c4)n(N)c3=O)c(=O)oc2c1
DU-145 [11]
  IC50: 3.1 µg/mL (≈ 5.3 µM)
BT-20 [12]
  IC50: 3.1 µg/mL (≈ 5.3 µM)
BT-20 [13]
  Ratio IC50: 2.7
A549 [14]
  IC50: 3.1 µg/mL (≈ 5.3 µM)
HeLa [15]
  IC50: 0.16 µg/mL (≈ 0.274 µM)
[16]
  IC50: 3.1 µg/mL (≈ 5.3 µM)

## COc1ccc2cc(C(C)c3nnc(SCC(=O)N/N=C/c4cc([N+](=O)[O-])ccc4-c4ccco4)n3-c3ccc(F)cc3)ccc2c1 (stereo unspecified)
DU-145 [17]
  IC50: 34500 nM
PC-3 [18]
  IC50: 26000 nM
LNCaP
  IC50: 48800 nM

## CC1CNCC(C)N1c1ccc(Nc2nccc(N3CCn4c(nnc4-c4ccc(F)c(Cl)c4)C3)n2)cc1 (stereo unspecified)
HCT-116 [19]
  IC50: 3590 nM
MCF7 [20]
  IC50: 3690 nM
PC-3 [21]
  IC50: 5520 nM
A549 [22]
  IC50: 2140 nM

## Nn1c(Cc2ccccc2Br)nn(CC(=O)NNC(=O)c2cc3cc(Cl)cc(Cl)c3oc2=O)c1=O
DU-145 [11]
  IC50: 3.1 µg/mL (≈ 5.32 µM)
BT-20 [12]
  IC50: 3.1 µg/mL (≈ 5.32 µM)
BT-20 [13]
  Ratio IC50: 5.2
A549 [14]
  IC50: 3.1 µg/mL (≈ 5.32 µM)
[16]
  IC50: 3.1 µg/mL (≈ 5.32 µM)

## COc1ccc(C(=O)n2nc(-c3ccncc3)nc2N)cc1
[23]
  IC50: 1800 nM
[24]
  IC50: 4600 nM
Tubulin [25]
  IC50: 872 nM

## CCCCSSc1nnc(-c2ccccc2)n1N
A549 [26]
  IC50: 2790 nM

## CCc1nnc2c(Nc3ccc(C(=O)/C=C/c4cc(OC)c(OC)c(OC)c4)cc3)nc3ccccc3n12
HepG2
  IC50: 8580 nM

## COc1ccc(-c2nc(N)n(C(=O)c3cc(OC)c(OC)c(OC)c3)n2)cc1
Tubulin [27]
  IC50: 970 nM
Jurkat
  IC50: < 1000 nM
RS4-11
  IC50: < 1000 nM
MCF7 [28]
  IC50: < 1000 nM
HeLa [29]
  IC50: < 1000 nM
HT-29
  IC50: < 1000 nM

## O=C(O)c1cn(C2CC2)c2cc(N3CCN(Cn4nc(CN5CCN(c6ccccc6)CC5)n(-c5ccccc5)c4=S)CC3)c(F)cc2c1=O
Escherichia coli
  MIC: 0.125 µg/mL (≈ 0.18 µM)
Enterococcus faecalis
  MIC: 0.125 µg/mL (≈ 0.18 µM)
Pseudomonas aeruginosa
  MIC: 0.125 µg/mL (≈ 0.18 µM)
[30]
  MIC: 0.125 µg/mL (≈ 0.18 µM)
Staphylococcus aureus [31]
  MIC: 0.125 µg/mL (≈ 0.18 µM)
Klebsiella pneumoniae
  MIC: 0.125 µg/mL (≈ 0.18 µM)

## O=c1c2ccccc2n2cnnc2n1-c1ccc(Cl)cc1
Mus musculus
  ED50: 88 mg/kg
[3]
  selectivity ratio: > 25.5

## CSc1nc(NC(=S)NCc2ccccc2)n(-c2ccc(C(=O)O)cc2)n1
HCT-116 [32]
  IC50: 15600 nM

## COc1cc(C(=O)n2nc(-c3ccc(C)cc3)nc2N)cc(OC)c1OC
Tubulin [27]
  IC50: 660 nM
Jurkat
  IC50: < 1000 nM
RS4-11
  IC50: < 1000 nM
MCF7 [28]
  IC50: < 1000 nM
HeLa [29]
  IC50: < 1000 nM
HT-29
  IC50: < 1000 nM
